In the NIST ThermoML archive (doi:10.1021/je300584m):
“And” between values parts separate entries of the source, which are not always exact repeats. Identical values can stand only once. Numbers after ± are expanded uncertainties.

Columns and labels:
[1] = Molar enthalpy of transition or fusion; conditions: Crystal; DSC
[2] = for Normal melting temperature: DTA

OC1c2ccccc2-c2ccccc21 [9H-fluoren-9-ol]
Conditions	Molar enthalpy of transition or fusion [kcal/mol]
[1]	5.78 ± 0.359

[2]
Conditions	vapor or sublimation pressure
337.16 K, Crystal, Calculated from knudsen effusion weight loss	0.000106 ± 2e-05 kPa
339.13 K, Crystal, Calculated from knudsen effusion weight loss	0.000132 ± 2.1e-05 kPa
341.1 K, Crystal, Calculated from knudsen effusion weight loss	0.000163 ± 2.1e-05 kPa
343.16 K, Crystal, Calculated from knudsen effusion weight loss	0.000196 ± 2.1e-05 kPa
345.09 K, Crystal, Calculated from knudsen effusion weight loss	0.000243 ± 2.2e-05 kPa
347.09 K, Crystal, Calculated from knudsen effusion weight loss	0.000307 ± 2.3e-05 kPa
349.15 K, Crystal, Calculated from knudsen effusion weight loss	0.000385 ± 2.4e-05 kPa
350.76 K, Crystal, Closed cell (Static) method	0.00051 ± 0.00012 kPa
351.11 K, Crystal, Calculated from knudsen effusion weight loss	0.00047 ± 2.6e-05 kPa
352.75 K, Crystal, Closed cell (Static) method	0.00062 ± 0.00012 kPa
353.11 K, Crystal, Calculated from knudsen effusion weight loss	0.000579 ± 2.9e-05 kPa
354.71 K, Crystal, Closed cell (Static) method	0.00075 ± 0.00012 kPa
355.1 K, Crystal, Calculated from knudsen effusion weight loss	0.00071 ± 3.2e-05 kPa
356.59 K, Crystal, Closed cell (Static) method	0.00092 ± 0.00013 kPa
357.09 K, Crystal, Calculated from knudsen effusion weight loss	0.000884 ± 3.7e-05 kPa
358.67 K, Crystal, Closed cell (Static) method	0.00113 ± 0.00013 kPa
359.09 K, Crystal, Calculated from knudsen effusion weight loss	0.001078 ± 8.5e-05 kPa
360.98 K, Crystal, Closed cell (Static) method	0.00139 ± 0.00013 kPa
362.63 K, Crystal, Closed cell (Static) method	0.00165 ± 0.00014 kPa
364.58 K, Crystal, Closed cell (Static) method	0.00198 ± 0.00015 kPa
366.55 K, Crystal, Closed cell (Static) method	0.00238 ± 0.00016 kPa
368.53 K, Crystal, Closed cell (Static) method	0.0029 ± 0.00017 kPa
370.51 K, Crystal, Closed cell (Static) method	0.00343 ± 0.00018 kPa
372.48 K, Crystal, Closed cell (Static) method	0.00418 ± 0.00021 kPa
372.51 K, Crystal, Closed cell (Static) method	0.00419 ± 0.00021 kPa
374.53 K, Crystal, Closed cell (Static) method	0.00504 ± 0.00024 kPa
376.49 K, Crystal, Closed cell (Static) method	0.00599 ± 0.00027 kPa
378.48 K, Crystal, Closed cell (Static) method	0.00711 ± 0.00031 kPa
380.44 K, Crystal, Closed cell (Static) method	0.00855 ± 0.00036 kPa
382.39 K, Crystal, Closed cell (Static) method	0.01001 ± 0.00041 kPa
384.38 K, Crystal, Closed cell (Static) method	0.01183 ± 0.00048 kPa
386.35 K, Crystal, Closed cell (Static) method	0.01393 ± 0.00053 kPa
388.32 K, Crystal, Closed cell (Static) method	0.01662 ± 0.00058 kPa
390.28 K, Crystal, Closed cell (Static) method	0.0195 ± 0.00062 kPa
392.27 K, Crystal, Closed cell (Static) method	0.02263 ± 0.00067 kPa
394.22 K, Crystal, Closed cell (Static) method	0.02684 ± 0.00073 kPa
396.22 K, Crystal, Closed cell (Static) method	0.03155 ± 0.0008 kPa
398.16 K, Crystal, Closed cell (Static) method	0.03678 ± 0.00088 kPa
400.1 K, Crystal, Closed cell (Static) method	0.04277 ± 0.00098 kPa
402.11 K, Crystal, Closed cell (Static) method	0.05007 ± 0.0011 kPa
404.04 K, Crystal, Closed cell (Static) method	0.05782 ± 0.0012 kPa
406.06 K, Crystal, Closed cell (Static) method	0.06738 ± 0.0014 kPa
407.96 K, Crystal, Closed cell (Static) method	0.07784 ± 0.0015 kPa
409.98 K, Liquid, Closed cell (Static) method	0.1186 ± 0.0021 kPa
410 K, Crystal, Closed cell (Static) method	0.09038 ± 0.0017 kPa
411.89 K, Crystal, Closed cell (Static) method	0.104 ± 0.0019 kPa
411.93 K, Liquid, Closed cell (Static) method	0.1331 ± 0.0021 kPa
413.86 K, Crystal, Closed cell (Static) method	0.1211 ± 0.0022 kPa
413.91 K, Liquid, Closed cell (Static) method	0.15 ± 0.0022 kPa
415.85 K, Crystal, Closed cell (Static) method	0.1377 ± 0.0021 kPa
415.88 K, Liquid, Closed cell (Static) method	0.1652 ± 0.0023 kPa
417.82 K, Crystal, Closed cell (Static) method	0.1592 ± 0.0023 kPa
417.86 K, Liquid, Closed cell (Static) method	0.1822 ± 0.0025 kPa
419.78 K, Crystal, Closed cell (Static) method	0.1848 ± 0.0025 kPa
419.81 K, Liquid, Closed cell (Static) method	0.2047 ± 0.0027 kPa
421.73 K, Crystal, Closed cell (Static) method	0.2084 ± 0.0027 kPa
421.79 K, Liquid, Closed cell (Static) method	0.2266 ± 0.0029 kPa
423.71 K, Crystal, Closed cell (Static) method	0.2411 ± 0.003 kPa
423.75 K, Liquid, Closed cell (Static) method	0.2538 ± 0.0031 kPa
425.74 K, Liquid, Closed cell (Static) method	0.2828 ± 0.0034 kPa
427.7 K, Liquid, Closed cell (Static) method	0.3131 ± 0.0036 kPa and 0.3096 ± 0.0036 kPa
429.67 K, Liquid, Closed cell (Static) method	0.3457 ± 0.0039 kPa
431.58 K, Liquid, Closed cell (Static) method	0.3815 ± 0.0042 kPa
431.6 K, Liquid, Closed cell (Static) method	0.3843 ± 0.0042 kPa
433.57 K, Liquid, Closed cell (Static) method	0.4239 ± 0.0046 kPa
435.51 K, Liquid, Closed cell (Static) method	0.4605 ± 0.0049 kPa
435.52 K, Liquid, Closed cell (Static) method	0.4642 ± 0.0049 kPa
437.51 K, Liquid, Closed cell (Static) method	0.5099 ± 0.0053 kPa
439.47 K, Liquid, Closed cell (Static) method	0.5625 ± 0.0058 kPa
441.42 K, Liquid, Closed cell (Static) method	0.615 ± 0.0062 kPa

Conditions	Normal melting temperature [°C]
[2], Crystal	155.6 ± 0.39

O=C1c2ccccc2-c2ccccc21 [9(9H)-fluorenone]
Conditions	Molar enthalpy of transition or fusion [kcal/mol]
[1]	4.21 ± 0.359

vapor or sublimation pressure [kPa], [2]
Conditions	Crystal	Liquid
312.19 K, Calculated from knudsen effusion weight loss	8.9e-05 ± 2e-05	–
314.21 K, Calculated from knudsen effusion weight loss	0.000115 ± 2e-05	–
316.11 K, Calculated from knudsen effusion weight loss	0.000143 ± 2.1e-05	–
318.18 K, Calculated from knudsen effusion weight loss	0.00018 ± 2.1e-05	–
320.2 K, Calculated from knudsen effusion weight loss	0.000225 ± 2.2e-05	–
322.11 K, Calculated from knudsen effusion weight loss	0.000273 ± 2.2e-05	–
324.19 K, Calculated from knudsen effusion weight loss	0.000344 ± 2.3e-05	–
326.19 K, Calculated from knudsen effusion weight loss	0.00043 ± 2.5e-05	–
326.88 K, Closed cell (Static) method	0.00045 ± 0.00011	–
327.85 K, Closed cell (Static) method	–	0.0008 ± 0.0001
328.11 K, Calculated from knudsen effusion weight loss	0.000528 ± 2.7e-05	–
328.32 K, Closed cell (Static) method	0.00053 ± 0.00011	–
329.82 K, Closed cell (Static) method	–	0.00095 ± 0.00012
329.83 K, Closed cell (Static) method	0.00061 ± 0.00011	–
330.18 K, Calculated from knudsen effusion weight loss	0.000638 ± 3e-05	–
331.3 K, Closed cell (Static) method	0.00072 ± 0.00012	–
331.79 K, Closed cell (Static) method	–	0.00112 ± 0.00012
332.18 K, Calculated from knudsen effusion weight loss	0.000796 ± 3.5e-05	–
332.81 K, Closed cell (Static) method	0.00085 ± 0.00012	–
333.8 K, Closed cell (Static) method	–	0.00133 ± 0.00012
334.1 K, Calculated from knudsen effusion weight loss	0.000977 ± 4e-05	–
334.29 K, Closed cell (Static) method	0.00098 ± 0.00012	–
335.78 K, Closed cell (Static) method	0.00113 ± 0.00012	0.00159 ± 0.00013
337.25 K, Closed cell (Static) method	0.00133 ± 0.00013	–
337.74 K, Closed cell (Static) method	–	0.00185 ± 0.00014
338.75 K, Closed cell (Static) method	0.00153 ± 0.00013	–
339.72 K, Closed cell (Static) method	–	0.00217 ± 0.00014
340.21 K, Closed cell (Static) method	0.00177 ± 0.00013	–
341.69 K, Closed cell (Static) method	0.00205 ± 0.00014	–
341.76 K, Closed cell (Static) method	–	0.00258 ± 0.00015
343.19 K, Closed cell (Static) method	0.00235 ± 0.00015	–
343.72 K, Closed cell (Static) method	–	0.00299 ± 0.00017
344.68 K, Closed cell (Static) method	0.00272 ± 0.00016	–
345.66 K, Closed cell (Static) method	–	0.00348 ± 0.00018
346.2 K, Closed cell (Static) method	0.00311 ± 0.00017	–
347.68 K, Closed cell (Static) method	0.00355 ± 0.00018	0.00409 ± 0.0002
349.17 K, Closed cell (Static) method	0.00409 ± 0.0002	–
349.66 K, Closed cell (Static) method	–	0.00468 ± 0.00022
350.65 K, Closed cell (Static) method	0.00467 ± 0.00022	–
351.63 K, Closed cell (Static) method	–	0.00545 ± 0.00025
352.14 K, Closed cell (Static) method	0.00544 ± 0.00024	–
353.63 K, Closed cell (Static) method	–	0.0063 ± 0.0003
355.58 K, Closed cell (Static) method	–	0.00731 ± 0.00031
357.59 K, Closed cell (Static) method	–	0.0084 ± 0.0004
359.82 K, Closed cell (Static) method	–	0.00981 ± 0.0004
361.57 K, Closed cell (Static) method	–	0.01112 ± 0.00045
361.59 K, Closed cell (Static) method	–	0.01107 ± 0.00045
363.79 K, Closed cell (Static) method	–	0.01285 ± 0.00052
365.52 K, Closed cell (Static) method	–	0.01446 ± 0.00054
367.74 K, Closed cell (Static) method	–	0.01661 ± 0.00057
369.53 K, Closed cell (Static) method	–	0.01887 ± 0.00061
371.72 K, Closed cell (Static) method	–	0.02159 ± 0.00065
373.53 K, Closed cell (Static) method	–	0.02435 ± 0.00069
375.67 K, Closed cell (Static) method	–	0.02768 ± 0.00074
377.47 K, Closed cell (Static) method	–	0.03128 ± 0.0008
379.65 K, Closed cell (Static) method	–	0.03529 ± 0.00086
381.4 K, Closed cell (Static) method	–	0.03955 ± 0.00092
383.6 K, Closed cell (Static) method	–	0.04451 ± 0.001
385.47 K, Closed cell (Static) method	–	0.05021 ± 0.0011
387.56 K, Closed cell (Static) method	–	0.05645 ± 0.0012
391.51 K, Closed cell (Static) method	–	0.07082 ± 0.0014
393.41 K, Closed cell (Static) method	–	0.07755 ± 0.0015
395.41 K, Closed cell (Static) method	–	0.08762 ± 0.0017
397.36 K, Closed cell (Static) method	–	0.09675 ± 0.0018
399.35 K, Closed cell (Static) method	–	0.1089 ± 0.002
401.32 K, Closed cell (Static) method	–	0.1202 ± 0.0022
403.3 K, Closed cell (Static) method	–	0.1342 ± 0.0021
406.25 K, Closed cell (Static) method	–	0.1558 ± 0.0023
407.26 K, Closed cell (Static) method	–	0.1646 ± 0.0023
409.18 K, Closed cell (Static) method	–	0.1808 ± 0.0025
411.21 K, Closed cell (Static) method	–	0.2014 ± 0.0026
413.17 K, Closed cell (Static) method	–	0.2206 ± 0.0028
415.17 K, Closed cell (Static) method	–	0.244 ± 0.003
417.11 K, Closed cell (Static) method	–	0.2679 ± 0.0032
419.13 K, Closed cell (Static) method	–	0.2948 ± 0.0035
421.06 K, Closed cell (Static) method	–	0.3242 ± 0.0037
423.04 K, Closed cell (Static) method	–	0.355 ± 0.004
425 K, Closed cell (Static) method	–	0.3873 ± 0.0043
427.02 K, Closed cell (Static) method	–	0.4288 ± 0.0046
428.95 K, Closed cell (Static) method	–	0.467 ± 0.005
430.77 K, Closed cell (Static) method	–	0.511 ± 0.005
432.92 K, Closed cell (Static) method	–	0.5574 ± 0.0057
434.9 K, Closed cell (Static) method	–	0.604 ± 0.006
436.86 K, Closed cell (Static) method	–	0.6602 ± 0.0066
438.87 K, Closed cell (Static) method	–	0.7204 ± 0.0071
440.85 K, Closed cell (Static) method	–	0.7844 ± 0.0077

Conditions	Normal melting temperature [°C]
[2], Crystal	83.01 ± 0.56
